Measured values as given in US20230159445A1, “STAT INHIBITORY COMPOUNDS AND COMPOSITIONS” (JANPIX LIMITED, priority 2020, published 2023).

Legend:
MV4-11 cells = experiment: MV4-11 Cell Cytotoxicity Assay (CellTiter-Blue, 72 h); assay type: cell-based, human; conditions: Homo sapiens, MV4-11; MV-4-11 cells
Procedure, shortened: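 Cells seeded 24 h before treatment, then exposed 72 h at 37° C, 5% CO2 to inhibitors in triplicate, top concentration 50 μM with 1:2 serial dilutions (0.5% DMSO vehicle). Viability read by CellTiter-Blue fluorescence at 560/590 nm after 1 h.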

glutathione (GSH) = experiment: Reactivity Profiling with Glutathione (GSH), half-life by HPLC; conditions: 5 mM glutathione (GSH) in IMDM with 10% FBS
[1] = test system: normal human fibroblast (NHF) cells; experiment: NHF Cell Cytotoxicity Assay (CellTiter-Blue, 72 h), off-target effects; assay type: cell-based; conditions: Homo sapiens, Fibroblast; pooled NHF cells
Procedure, shortened: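 Normal human fibroblasts (1×10^4/well, 10% FBS medium) were treated after 24 h with inhibitor at 0.097656-50 μM for 72 h at 37° C. Viability was read by CellTiter-Blue fluorescence (560/590 nm), normalized to DMSO control, and IC50 obtained from a variable-slope log(inhibitor)-response fit of four replicates.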

| Structure (SMILES) | half-life at 25 μM (glutathione (GSH)) [h] | IC50 (MV4-11 cells) [nM] | IC50 [1] [nM] |
| --- | --- | --- | --- |
| CC(C)(C)c1cc(CN(C(=O)CN(Cc2ccccc2C(F)(F)F)S(=O)(=O)c2c(F)c(F)c(F)c(F)c2F)c2ccc(C(=O)O)cc2OC2CC2)cc(C2CC2)c1 [Compound 1111, 4-(N-(3-(tert-butyl)-5-cyclopropylbenzyl)-2-(N-(2-(trifluoromethyl)benzyl)-(2,3,4,5,6-pentafluoro-phenyl)sulfonamido)acetamido)-3-cyclopropoxybenzoic acid] | 9.23 to 1670 | 0.01 to 316 | 30000 to 100000 |
| O=C(O)c1ccc(N(Cc2cc(C3CC3)cc(C3CC3)c2)C(=O)CN(Cc2ncccc2C(F)(F)F)S(=O)(=O)c2c(F)c(F)c(F)c(F)c2F)c(OC2CC2)c1 [Compound 1164, 3-cyclopropoxy-4-(N-(3,5-dicyclopropylbenzyl)-2-(N-((3-(trifluoromethyl)pyridin-2-yl)methyl)-(2,3,4,5,6-pentafluoro-phenyl)sulfonamido)acetamido)benzoic acid] | 4.12 to 9.23 | 316 to 1000 | 20000 to 30000 |
| CN(C)c1cc(C(=O)O)ccc1N(Cc1cc(C2CC2)cc(C(C)(C)C)c1)C(=O)CN(Cc1ccc(Cl)cc1)S(=O)(=O)c1c(F)c(F)c(F)c(F)c1F [Compound 1041, 4-(N-(3-(tert-butyl)-5-cyclopropylbenzyl)-2-(N-(4-chlorobenzyl)-(2,3,4,5,6-pentafluorophenyl)sulfon-amido)acetamido)-3-(dimethylamino)benzoic acid] | 9.23 to 1670 | 316 to 1000 | 20000 to 30000 |
| COc1cc(C(=O)O)ccc1N(Cc1cc(C2CC2)cc(C2CC2)c1)C(=O)CN(Cc1cnccc1C(F)(F)F)S(=O)(=O)c1c(F)c(F)c(F)c(F)c1F [Compound 1146, 4-(N-(3,5-dicyclopropylbenzyl)-2-(N-((4-(trifluoromethyl)pyridin-3-yl)methyl)-(2,3,4,5,6-pentafluoro-phenyl)sulfonamido)acetamido)-3-methoxybenzoic acid] | 0.00167 to 2.37 | 316 to 1000 | 1 to 10000 |
| COc1cc(C(=O)O)ccc1N(Cc1cc(C2CC2)cc(C(C)(C)C)c1)C(=O)CN(Cc1c(F)cc(F)cc1F)S(=O)(=O)c1c(F)c(F)c(F)c(F)c1F [Compound 1081] | 4.12 to 9.23 | 0.01 to 316 | 1 to 10000 |
| COc1cc(C(=O)O)ccc1N(Cc1cc(C2CC2)cc(C(C)(C)C)c1)C(=O)CN(Cc1ccc(Cl)cc1)S(=O)(=O)c1c(F)c(F)c(F)c(F)c1F [Compound 1016, 4-(N-(3-(tert-butyl)-5-cyclopropylbenzyl)-2-(N-(4-chlorobenzyl)-(2,3,4,5,6-pentafluorophenyl)sulfon-amido)acetamido)-3-methoxybenzoic acid] | 4.12 to 9.23 | 316 to 1000 | 20000 to 30000 |
| CC(C)(C)c1cc(CN(C(=O)CN(Cc2ccccc2F)S(=O)(=O)c2c(F)c(F)c(F)c(F)c2F)c2ccc(C(=O)O)cc2C(F)(F)F)cc(C2CC2)c1 [Compound 1092, 4-(N-(3-(tert-butyl)-5-cyclopropylbenzyl)-2-(N-(2-fluorobenzyl)-(2,3,4,5,6-pentafluoro-phenyl)sulfonamido)acetamido)-3-(trifluoromethyl)benzoic acid] | 4.12 to 9.23 | 0.01 to 316 | 10000 to 20000 |
| CC(C)(C)c1cc(CN(C(=O)CN(Cc2c(F)cc(F)cc2F)S(=O)(=O)c2c(F)c(F)c(F)c(F)c2F)c2ccc(C(=O)O)cc2OC2CC2)cc(C2CC2)c1 [Compound 1122, 4-(N-(3-(tert-butyl)-5-cyclopropylbenzyl)-2-(N-(2,4,6-trifluorobenzyl)-(2,3,4,5,6-pentafluoro-phenyl)sulfonamido)acetamido)-3-cyclopropoxybenzoic acid] | 9.23 to 1670 | 0.01 to 316 | 10000 to 20000 |

More lines, main results first:

| half-life at 25 μM (glutathione (GSH)) [h] | Structure (SMILES) | IC50 (MV4-11 cells) [nM] | IC50 [1] [nM] |
| --- | --- | --- | --- |
| 2.37 to 4.12 | O=C(O)c1ccc(N(Cc2cc(C3CC3)cc(C3CC3)c2)C(=O)CN(Cc2ccc(F)cc2Cl)S(=O)(=O)c2c(F)c(F)c(F)c(F)c2F)c(OC2CCOC2)c1 (stereo not drawn) [Compound 1220, 4-(2-(N-(2-chloro-4-fluorobenzyl)-(2,3,4,5,6-pentafluorophenyl)sulfon-amido)-N-(3,5-dicyclopropylbenzyl)acetamido)-3-((tetrahydrofuran-3-yl)oxy)benzoic acid] | 0.01 to 316 | 1 to 10000 |
| 4.12 to 9.23 | Cc1cc(C(=O)O)cc(C)c1N(Cc1cc(C2CC2)cc(C2CC2)c1)C(=O)CN(Cc1c(F)cc(F)cc1F)S(=O)(=O)c1c(F)c(F)c(F)c(F)c1F [Compound 1203, 4-(N-(3,5-dicyclopropylbenzyl)-2-(N-(2,4,6-trifluorobenzyl)-(2,3,4,5,6-pentafluoro-phenyl)sulfonamido)acetamido)-3,5-dimethylbenzoic acid] | 0.01 to 316 | 1 to 10000 |
| 4.12 to 9.23 | CCOc1cc(C(=O)O)ccc1N(Cc1cc(C2CC2)cc(C(C)(C)C)c1)C(=O)CN(Cc1ccc(F)cc1Cl)S(=O)(=O)c1c(F)c(F)c(F)c(F)c1F [Compound 1227, 4-(N-(3-(tert-butyl)-5-cyclopropylbenzyl)-2-(N-(2-chloro-4-fluorobenzyl)-(2,3,4,5,6-pentafluorophenyl)sulfon-amido)acetamido)-3-ethoxybenzoic acid] | 0.01 to 316 | 10000 to 20000 |
| 2.37 to 4.12 | CC(C)Oc1cc(C(=O)O)ccc1N(Cc1cc(C2CC2)cc(C2CC2)c1)C(=O)CN(Cc1ccccc1C#N)S(=O)(=O)c1c(F)c(F)c(F)c(F)c1F [Compound 1280, 4-(2-((N-(2-cyanobenzyl)-2,3,4,5,6-pentafluorophenyl)sulfonamido)-N-(3,5-dicyclopropylbenzyl)acetamido)-3-isopropoxybenzoic acid] | 0.01 to 316 | 10000 to 20000 |
| 2.37 to 4.12 | CC(C)(C)c1cc(CN(C(=O)CN(Cc2ccc(F)cc2Cl)S(=O)(=O)c2c(F)c(F)c(F)c(F)c2F)c2ccc(C(=O)O)cc2OC2CCOC2)cc(C2CC2)c1 (stereo not drawn) [Compound 1226, 4-(N-(3-(tert-butyl)-5-cyclopropylbenzyl)-2-(N-(2-chloro-4-fluorobenzyl)-(2,3,4,5,6-pentafluorophenyl)sulfon-amido)acetamido)-3-((tetrahydrofuran-3-yl)oxy)benzoic acid] | 0.01 to 316 | 1 to 10000 |
| 9.23 to 1670 | CC(C)(C)c1cc(CN(C(=O)CN(Cc2c(F)cccc2Cl)S(=O)(=O)c2c(F)c(F)c(F)c(F)c2F)c2ccc(C(=O)O)cc2OC2CC2)cc(C2CC2)c1 [Compound 1238, 4-(N-(3-(tert-butyl)-5-cyclopropylbenzyl)-2-(N-(2-chloro-6-fluorobenzyl)-(2,3,4,5,6-pentafluorophenyl)sulfon-amido)acetamido)-3-cyclopropoxybenzoic acid] | 0.01 to 316 | 10000 to 20000 |
| 0.00167 to 2.37 | Cc1cc(C(=O)O)ccc1N(Cc1cc(C2CC2)cc(C2CC2)c1)C(=O)CN(Cc1cnccc1C(F)(F)F)S(=O)(=O)c1c(F)c(F)c(F)c(F)c1F [Compound 1216, 4-(N-(3,5-dicyclopropylbenzyl)-2-(N-((4-(trifluoromethyl)pyridin-3-yl)methyl)-(2,3,4,5,6-pentafluoro-phenyl)sulfonamido)acetamido)-3-methylbenzoic acid] | 0.01 to 316 | 1 to 10000 |
| 4.12 to 9.23 | CCOc1cc(C(=O)O)cc(F)c1N(Cc1cc(C2CC2)cc(C2CC2)c1)C(=O)CN(Cc1ccc(F)cc1Cl)S(=O)(=O)c1c(F)c(F)c(F)c(F)c1F [Compound 1276, 4-(2-((N-(2-chloro-4-fluorobenzyl)-2,3,4,5,6-pentafluorophenyl)sulfonamido)-N-(3,5-dicyclopropylbenzyl)acetamido)-3-ethoxy-5-fluorobenzoic acid] | 0.01 to 316 | 10000 to 20000 |
| 9.23 to 1670 | O=C(O)c1ccc(N(Cc2cc(C3CC3)cc(N3CCCC3)c2)C(=O)CN(Cc2ccc(F)cc2Cl)S(=O)(=O)c2c(F)c(F)c(F)c(F)c2F)c(C2CC2)c1 [Compound 1200, 4-(2-(N-(2-chloro-4-fluorobenzyl)-(2,3,4,5,6-pentafluorophenyl)sulfon-amido)-N-(3-cyclopropyl-5-(pyrrolidin-1-yl)benzyl)acetamido)-3-cyclopropylbenzoic acid] | 0.01 to 316 | 1 to 10000 |
| 0.00167 to 2.37 | CCOc1cc(C(=O)O)ccc1N(Cc1cc(C2CC2)cc(C(C)(C)C)c1)C(=O)CN(Cc1cnccc1Cl)S(=O)(=O)c1c(F)c(F)c(F)c(F)c1F [Compound 1277, 4-(N-(3-(tert-butyl)-5-cyclopropylbenzyl)-2-((N-((4-chloropyridin-3-yl)methyl)-2,3,4,5,6-pentafluorophenyl)sulfonamido)acetamido)-3-ethoxybenzoic acid] | 0.01 to 316 | 1 to 10000 |
| 9.23 to 1670 | O=C(O)c1ccc(N(Cc2cc(C3CC3)cc(N3CCCC3)c2)C(=O)CN(Cc2c(F)cc(F)cc2F)S(=O)(=O)c2c(F)c(F)c(F)c(F)c2F)c(C2CC2)c1 [Compound 1199, 3-cyclopropyl-4-(N-(3-cyclopropyl-5-(pyrrolidin-1-yl)benzyl)-2-(N-(2,4,6-trifluorobenzyl)-(2,3,4,5,6-pentafluoro-phenyl)sulfonamido)acetamido)benzoic acid] | 0.01 to 316 | 1 to 10000 |
| 0.00167 to 2.37 | C#CCOc1cc(C(=O)O)ccc1N(Cc1cc(C2CC2)cc(C2CC2)c1)C(=O)CN(Cc1ccc(F)cc1Cl)S(=O)(=O)c1c(F)c(F)c(F)c(F)c1F [Compound 1258, 4-(2-(N-(2-chloro-4-fluorobenzyl)-(2,3,4,5,6-pentafluorophenyl)sulfon-amido)-N-(3,5-dicyclopropylbenzyl)acetamido)-3-(prop-2-yn-1-yloxy)benzoic acid] | 0.01 to 316 | 10000 to 20000 |
